How the values were obtained:
[1] = molecular target: T1, huFAP (HT1080-huFAP cells) (Homo sapiens, UniProt Q12884); test: [^111In]In-FAPI-46 displacement assay on FAP-expressing cells; format: binding; settings: 10^-9 M [^111In]In-FAPI-46, 45 min, n = 3, picture: nM ± 95% CI
T1 construct: expressed in transfected cells; host or cells: HT1080 (human sarcoma), stably transduced; provided by Prof; Dr. Uwe Haberkorn, University of Heidelberg
T1 sequence (Q12884 1-760): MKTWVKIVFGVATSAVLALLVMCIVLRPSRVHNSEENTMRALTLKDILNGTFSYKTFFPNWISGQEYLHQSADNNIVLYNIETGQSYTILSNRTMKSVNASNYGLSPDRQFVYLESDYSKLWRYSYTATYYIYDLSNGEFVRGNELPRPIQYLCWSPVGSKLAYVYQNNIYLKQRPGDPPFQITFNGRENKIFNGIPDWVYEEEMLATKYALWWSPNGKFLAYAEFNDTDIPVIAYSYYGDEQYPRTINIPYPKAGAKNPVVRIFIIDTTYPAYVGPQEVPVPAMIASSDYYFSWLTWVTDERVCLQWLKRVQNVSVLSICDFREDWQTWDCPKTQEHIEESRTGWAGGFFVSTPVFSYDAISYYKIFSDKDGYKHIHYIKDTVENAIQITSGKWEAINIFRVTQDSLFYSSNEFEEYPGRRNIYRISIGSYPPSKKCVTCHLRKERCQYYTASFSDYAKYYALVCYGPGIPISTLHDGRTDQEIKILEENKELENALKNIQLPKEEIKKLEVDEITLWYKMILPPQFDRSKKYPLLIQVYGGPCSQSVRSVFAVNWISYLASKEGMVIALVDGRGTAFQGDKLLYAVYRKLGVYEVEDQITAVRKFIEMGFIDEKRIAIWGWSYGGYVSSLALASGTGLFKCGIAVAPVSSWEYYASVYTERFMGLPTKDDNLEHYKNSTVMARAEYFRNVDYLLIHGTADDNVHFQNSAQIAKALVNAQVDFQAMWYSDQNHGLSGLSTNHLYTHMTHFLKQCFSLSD
Description: Cell experiments were performed with the human sarcoma HT1080 cell line, stably transduced with human FAP (HT1080-huFAP) which were kindly provided by Prof. Dr. Uwe Haberkorn from the University of Heidelberg. The wild type HT1080 (ATTC), hereafter HT080-WT, was used as a negative control. Additionally, the pancreatic stellate cells PS-1, obtained from Queen Mary University, were used as an endogenously FAP expressing cell line. HT1080-huFAP and HT1080-WT cells were cultured in DMEM Glutamax© (Gibco; Breda, The Netherlands) and the PS-1 cells were cultured in RPMI (Gibco). Both media were supplemented with 10% FBS (Gibco), 100 UI/mL penicillin, and 100 µg/mL streptomycin (Merck Life Science NV; Amsterdam, The Netherlands). All cell lines were regularly passaged at 80% confluence and cultured at 37 °C, 5% CO2.
In vitro displacement studies of eFAP-6 and eFAP-7, as well as specificity and uptake assays, were performed using HT0180-huFAP cells. One day prior to the assay 100,000 cells were seeded in a 12-well plate in triplicate. […] For the uptake assay, the cells were incubated with 1 nM [^111In]In-eFAP-6 or [^111In]In-FAPI-46 for different time points (5–120 min) in the presence and absence of 1 mM UAMC-1110 to determine the specificity of^111 radiotracer binding. In both assays, the cells were washed twice with PBS after incubation and were subsequently lysed using 1 M NaOH for 20 min. The cell lysates were collected and radioactivity was measured in a γ-counter (PerkinElmer), simultaneously with 100 µL of the radioactive incubation medium as a standard. […] Uptake was expressed as percentage added activity per 200,000 cells (% AA/200,000 cells), and specific uptake was corrected by subtracting the uptake measured in the block wells.
All statistical analyses were performed with GraphPad Prism version 9.0 (San Diego, California USA). All IC50 values were determined using a non-linear regression Log(inhibitor) vs. response analysis with variable slope (four parameters). […]

[2] = LogD7.4 shake-flask method (n-octanol/PBS); format: physicochemical; settings: n-octanol/PBS (1:1 v/v); n-octanol/PBS pH 7.4, shake-flask
Description: The distribution coefficients (LogD7.4) were determined using a shake-flask method, in which 2 µL (~ 0.5 MBq) of [^111In]In-eFAP-6 or 10 µL of eFAP-7 (10^− 4 M) was added to an Eppendorf tube containing 1 mL of PBS (0.01 M, pH 7.4) and n-octanol (v/v, 1:1). After vigorous vortexing, the solution was centrifuged at 2500× g for 15 min for phase separation. For radiolabeled eFAP-6, samples (3 × 10 µL) of the octanol and aqueous phases were taken out and measured in a 1480 Wizard automatic γ-counter (PerkinElmer; Groningen, The Netherlands). LogD7.4 values were calculated by using the following equation: LogD7.4 = log [(counts in octanol phase)/(counts in aqueous phase)]. For eFAP-7, samples (50 µL) of the octanol and aqueous phases were taken out and measured by LC-MS. LogD7.4 values were calculated by using the following equation: LogD7.4 = log [(area in octanol phase)/(area in aqueous phase)].

[3] = molecular target: T2, dipeptidyl peptidase IV (DPP4) (Homo sapiens, UniProt P27487); test: Enzymatic inhibition assay, DPP4; format: biochemical; settings: recombinant DPP4, n = 3; picture: nM ± 95% CI
T2 construct: purchased Abcam
Description: All experiments were performed in triplicate and repeated at least three times.

T2 sequence (P27487 whole entry, species assumed): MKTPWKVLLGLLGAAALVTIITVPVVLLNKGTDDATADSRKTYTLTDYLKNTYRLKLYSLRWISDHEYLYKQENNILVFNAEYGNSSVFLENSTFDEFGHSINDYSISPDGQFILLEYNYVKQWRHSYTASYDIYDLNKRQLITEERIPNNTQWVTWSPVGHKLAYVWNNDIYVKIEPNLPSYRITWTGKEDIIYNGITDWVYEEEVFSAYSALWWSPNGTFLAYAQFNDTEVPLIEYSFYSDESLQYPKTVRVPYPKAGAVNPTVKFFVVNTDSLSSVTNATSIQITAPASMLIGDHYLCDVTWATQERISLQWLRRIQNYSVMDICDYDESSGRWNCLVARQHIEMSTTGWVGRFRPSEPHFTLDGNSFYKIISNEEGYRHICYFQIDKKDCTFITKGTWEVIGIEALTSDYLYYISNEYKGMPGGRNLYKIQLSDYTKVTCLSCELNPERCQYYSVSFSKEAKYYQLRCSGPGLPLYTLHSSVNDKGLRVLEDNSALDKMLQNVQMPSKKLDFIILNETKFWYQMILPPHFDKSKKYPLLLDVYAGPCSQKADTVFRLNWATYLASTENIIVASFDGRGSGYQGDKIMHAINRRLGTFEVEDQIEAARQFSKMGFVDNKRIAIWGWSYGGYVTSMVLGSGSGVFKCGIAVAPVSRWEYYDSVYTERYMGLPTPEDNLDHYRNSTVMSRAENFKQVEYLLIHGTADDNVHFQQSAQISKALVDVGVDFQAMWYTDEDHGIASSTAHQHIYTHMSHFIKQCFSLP

| IC50 [1] | logD [2] | IC50 [3] | Structure (SMILES) |
| --- | --- | --- | --- |
| 1.42 ± 0.29 nM |  |  | CN(CCCN1CCN(C(=O)CN2CCN(CC(=O)O)CCN(CC(=O)O)CCN(CC(=O)O)CC2)CC1)c1ccc2nccc(C(=O)NCC(=O)N3CC(F)(F)C[C@H]3C#N)c2c1 [FAPI-46, reference compound] |
| 1 ± 0.36 nM | -0.94 ± 0.26 | 612000 ± 42700 nM | CN1/C(=C/C=C/C=C/C2=[N+](CCCCCC(=O)NCCCOc3cccc4c(C(=O)NCC(=O)N5CC(F)(F)C[C@H]5C#N)ccnc34)c3ccc(S(=O)(=O)[O-])cc3C2(C)C)C(C)(C)c2cc(S(=O)(=O)O)ccc21 [eFAP-7, 1-(6-((3-((4-((2-((S)-2-cyano-4,4-difluoropyrrolidin-1-yl)-2-oxoethyl)carbamoyl)quinolin-8-yl)oxy)propyl)amino)-6-oxohexyl)-3,3-dimethyl-5-sulfo-2-((1E,3E)-5-((E)-1,3,3-trimethyl-5-sulfoindolin-2-ylidene)penta-1,3-dien-1-yl)-3H-indol-1-ium] |
| 0.62 ± 0.26 nM |  | 58600 ± 11400 nM | N#C[C@@H]1CC(F)(F)CN1C(=O)CNC(=O)c1ccnc2c(OCCCNC(=O)CN3CCN(CC(=O)O)CCN(CC(=O)O)CCN(CC(=O)O)CC3)cccc12 [eFAP-6, (S)-2,2',2''-(10-(2-((3-((4-((2-(2-cyano-4,4-difluoropyrrolidin-1-yl)-2-oxoethyl)carbamoyl)quinolin-8-yl)oxy)propyl)amino)-2-oxoethyl)-1,4,7,10-tetraazacyclododecane-1,4,7-triyl)triacetic acid] |
